Source: patent EP0492113A2, “Herbicide resistant AHAS deletion mutants” (priority 1990, dated 1992)
Values joined by “and” are separate entries in the source; they are usually repeats but may differ in a detail not shown here. Equal entries are not always repeated.

Legend:
[1] = tested on: 10-1 Selfed; test: Tobacco seed assay on herbicide medium, 10-1 selfed; format: in vivo; conditions: 5 µM in medium; twenty seeds per dish; after three weeks
Protocol: (§1) Seeds resulting from transgenic plant 10-1 are also assayed for resistance to the imidazolinone Pursuit®. Seeds are plated onto medium containing Pursuit® at 0, 1.25, 2.5, 3.75, and 5.0 µM. Twenty seeds are plated per petri dish, with two dishes per treatment. Herbicide tolerance of seedlings is evaluated after three weeks. […]

[2] = tested on: W38 (wild-type); test: Tobacco seed assay on herbicide medium, W38; format: in vivo; conditions: after three weeks
Protocol: as §1

[3] = biological target: T1, Wild type Arabidopsis AHAS (Arabidopsis thaliana, UniProt P17597); test: AHAS enzyme assay (expression in E. coli MF2000), wild type enzyme; format: biochemical; conditions: wild type (pAC201); Figures 4 and 5
T1 construct: made in house; host or cells: E. coli MF2000 (no endogenous AHAS), vector pKK233-2; ammonium sulfate fraction of the extract
T1 sequence (P17597 56-670): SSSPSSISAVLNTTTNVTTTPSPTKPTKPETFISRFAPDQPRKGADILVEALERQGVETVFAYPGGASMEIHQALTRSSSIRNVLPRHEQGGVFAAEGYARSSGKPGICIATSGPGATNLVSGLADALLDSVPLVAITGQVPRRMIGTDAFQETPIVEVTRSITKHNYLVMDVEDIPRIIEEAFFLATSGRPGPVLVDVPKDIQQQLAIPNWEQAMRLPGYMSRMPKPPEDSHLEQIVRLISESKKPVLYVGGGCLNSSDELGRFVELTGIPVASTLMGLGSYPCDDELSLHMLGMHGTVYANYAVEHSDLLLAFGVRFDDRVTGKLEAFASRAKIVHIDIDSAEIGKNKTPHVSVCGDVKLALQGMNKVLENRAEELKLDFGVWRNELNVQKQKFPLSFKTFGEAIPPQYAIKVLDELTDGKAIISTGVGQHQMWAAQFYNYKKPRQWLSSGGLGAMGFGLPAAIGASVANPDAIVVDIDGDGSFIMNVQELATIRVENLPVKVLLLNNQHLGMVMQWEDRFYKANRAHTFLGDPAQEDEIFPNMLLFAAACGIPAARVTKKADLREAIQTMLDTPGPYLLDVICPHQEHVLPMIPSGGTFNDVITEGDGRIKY
Protocol: AHAS enzyme assay (expression in E. coli) - The site directed mutants, pAC224 and pAC225, are utilized as templates for the generation of an E. coli based expression system. The insensitivity to herbicide is tested when the higher plant gene of interest is expressed in a bacterial strain devoid of any endogenous AHAS activity. To this end, the Nco1/Pst1 fragment of wild type Arabidopsis AHAS (pAC301), the Trp574-Leu substitution (pAC224) and the Trp574 deletion (pAC225) are subcloned into the Nco1/Pst1 site of the E. coli expression vector, pKK233-2 (purchased from Pharmacia). This expression plasmid contains an IPTG inducible promoter as well as a transcription termination sequence. Both regions surround an Nco1, HindIII and Pstl linker sequence that allows proper orientation of the gene of interest in relation to the bacterial promoter. Subcloning and ligation of the respective Ncol/Pstl fragments into Ncol/Pstl digested pKK233-2 DNA (ampicillin resistance) is as previously described. […] This bacterial strain is devoid of endogenous AHAS activity. Therefore, growth on a minimal media lacking isoleucine and valine (the end products of amino acid biosynthetic pathway of which the AHAS enzyme is involved) in an MF2000 strain transformed with either pAC224 (Trp574-Leu) or pAC225 (Trp del) requires the expression and function of the Arabidopsis gene in E. coli. […]

[4] = biological target: T2, Trp574-->Leu substitution mutant allele of the Arabidopsis AHAS (Arabidopsis thaliana, UniProt P17597, W574L); test: AHAS enzyme assay (leaf tissue) of tobacco transformants 33-1 and 46-2; format: biochemical; conditions: leaf extracts of kanamycin resistant transformants 33-1 and 46-2
T2 construct: expressed in transfected cells; host or cells: leaf tissue of transgenic tobacco (Wisconsin 38 background), Agrobacterium LBA4404 / pBIN19 with the 5.5 kb XbaI genomic fragment
Protocol: (§2) AHAS enzyme assay (leaf tissue) - Shortly after transfer to the greenhouse, extracts each of the kanamycin resistant transformants are prepared and assayed for insensitivity to the imidazolinone Pursuit® herbicide. Acetohydroxyacid synthase is extracted and assayed as described in the previous section. […] This Trp574 deletion transformant is selfed and backcrossed to Wisconsin 38.
(§3) The extraction and assay for Arabidopsis AHAS in bacterial cells is essentially as described by Singh, et. al. (J. Chromatography 444: 251-261, 1988). The bacterial pellet is powered in liquid nitrogen and homogenized in 100mM potassium phosphate buffer (pH 7.5) containing 10mM pyruvate, 5mM magnesium chloride, 5mM Na₂-EDTA, 100um flavin adenine dinucleotide (FAD), 1mM valine, 1mM leucine, 10%(v/v) glycerol and 10mM cysteine. The homogenate is filtered through a nylon cloth (53uM mesh) and centrifuged at 25,000 x g for 20 minutes. The supernatant fraction is brought to 50% saturation with respect to ammonium sulfate and allowed to stand for 20-30 minutes on ice. […]
(§4) AHAS activity in the presence or absence of herbicide is measured by estimation of the product, acetolactate, after conversion by acid decarboxylation to acetoin. […] The acetoin formed is determined by incubating with creatine (0.17%) and 1-naphthol (1.7%) by the method of Westerfeld (J. Biol. Chem. 161: 495-502, 1945). […]

[5] = tested on: 10-1 x 0; test: Tobacco seed assay on herbicide medium, 10-1 x 0; format: in vivo; conditions: 5 µM in medium; twenty seeds per dish; after three weeks
Protocol: as §1

[6] = biological target: T3, Arabidopsis AHAS Trp574-Leu substitution (pAC224) (Arabidopsis thaliana, UniProt P17597, W574L); format: biochemical; conditions: increasing concentrations of herbicide, Figures 4 and 5
T3 construct: made in house; host or cells: E. coli MF2000, vector pKK233-2
Protocol: (§5) AHAS enzyme assay (expression in E. coli) - The site directed mutants, pAC224 and pAC225, are utilized as templates for the generation of an E. coli based expression system. The insensitivity to herbicide is tested when the higher plant gene of interest is expressed in a bacterial strain devoid of any endogenous AHAS activity. To this end, the Nco1/Pst1 fragment of wild type Arabidopsis AHAS (pAC301), the Trp574-Leu substitution (pAC224) and the Trp574 deletion (pAC225) are subcloned into the Nco1/Pst1 site of the E. coli expression vector, pKK233-2 (purchased from Pharmacia). This expression plasmid contains an IPTG inducible promoter as well as a transcription termination sequence. Both regions surround an Nco1, HindIII and Pstl linker sequence that allows proper orientation of the gene of interest in relation to the bacterial promoter. Subcloning and ligation of the respective Ncol/Pstl fragments into Ncol/Pstl digested pKK233-2 DNA (ampicillin resistance) is as previously described. The ligation reaction is transformed into the E. coli strain, MF2000 [ilvB800:mu-1, Bg132, ilvI15, thi-1, argE3, RPSL31, (ara-leu, iIvHI) 863, mtl-1, xyl-5 galK2, lacYI, recAl]. This bacterial strain is devoid of endogenous AHAS activity. […]

[7] = biological target: T4, Arabidopsis AHAS Trp574 deletion (pAC225) (Arabidopsis thaliana, UniProt P17597, DEL574-574); format: biochemical; conditions: increasing concentrations of herbicide, Figures 4 and 5
T4 construct: made in house; host or cells: E. coli MF2000, vector pKK233-2
Protocol: as §5

[8] = tested on: Wisconsin 38[W38] wild-type herbicide sensitive tobacco cultivar; test: Postemergence spray of tobacco, susceptible control; format: in vivo; conditions: for plant growth: 25 days after spraying, Figure 2(a); for Tobacco Mean FW: (5 reps each): Control, four and one-half weeks
Excerpt: (§6) All three photographs were taken 25 days after spraying. In all photographs, control plants (a wild-type herbicide sensitive tobacco cultivar, Wisconsin 38[W38]) are in the front row. • (a) W38 Control and 10-1 Self - W38 represents the control and 10-1 the selfed transgenic tobacco progeny. At 0 g/ha Pursuit®, both the W38 and the 10-1 look similar. […] 0 x 10-1 represents W38 as the maternal parent (0) and 10-1 as the paternal parent. The results are very similar to that seen in the 10-1 selfed photograph. • (c) W38 Control and 10-1 x 0 - W38 as previously described. 10-1 x 0 represents 10-1 as the maternal parent and W38 as the paternal parent (0). The results are very similar to that seen in the 10-1 selfed photograph except that in this photo segregation of the herbicide resistance trait can be seen in the 10-1 progeny.
(§7) In a more quantitative assay, seed of selfed progeny of the transgenic tobacco plant (10-1) containing the Trp574 deletion mutation of Arabidopsis AHAS as well as seeds of the susceptible parental cultivar "Wisconsin 38" are planted in Metro Mix 350™ in 5" Azalea pots. The seedlings are thinned to the single most vigorous seedling after 2 days. Eleven days later, these plants are sprayed postemergence with Pursuit® at 0, 10, 20, 40, 80 and 160 g/ha. Five plants of each tobacco type (transgenic and control) are sprayed per herbicide rate. Tween 20™ is added at 0.25 v/v to the herbicide solutions prior to spraying. The herbicide is applied with a laboratory belt sprayer at a rate of 400 L/ha at a distance 18" above the plants with a belt speed of 8.2 sec/rev and sprayer nozzle #65015E. Plant heights are measured 1, 2, 3, and 4 weeks after treatment, plant fresh weight data is collected at four and one-half weeks.

[9] = biological target: T5, AHAS produced by the Ser653 deletion (pAC230) (Arabidopsis thaliana, UniProt P17597, DEL653-653); format: biochemical; conditions: Figures 6 and 7
T5 construct: made in house; host or cells: E. coli MF2000

[10] = biological target: T6, AHAS produced by substitution of asparagine for serine at position 653 (pAC229) (Arabidopsis thaliana, UniProt P17597, S653N); format: biochemical; conditions: Ser653 to asparagine substitution; Figure 6
T6 construct: made in house; host or cells: E. coli MF2000

[11] = tested on: 0 x 10-1; test: Tobacco seed assay on herbicide medium, 0 x 10-1; format: in vivo; conditions: 5 µM in medium; twenty seeds per dish; after three weeks
Protocol: as §1

[12] = tested on: selfed progeny of the transgenic tobacco plant (10-1) containing the Trp574 deletion mutation of Arabidopsis AHAS; test: Postemergence spray of tobacco, selfed progeny of transgenic plant 10-1; format: in vivo; conditions: for plant growth: 25 days after spraying, Figure 2(a); for Tobacco Mean FW: (5 reps each): Transgenic Progeny, four and one-half weeks
Excerpt: as §6, §7

[13] = biological target: T7, mutant Arabidopsis AHAS allele having the Trp574 deletion (Arabidopsis thaliana, UniProt P17597, DEL574-574); test: AHAS enzyme assay (leaf tissue) of tobacco deletion transformant 10-1; format: biochemical; conditions: leaf extract of kanamycin resistant deletion transformant 10-1
T7 construct: expressed in transfected cells; host or cells: leaf tissue of transgenic tobacco plant 10-1, Agrobacterium LBA4404 / pBIN19 with the 5.5 kb XbaI genomic fragment
Protocol: as §2, §3, §4

[14] = 5 µM in medium, twenty seeds per dish

T6 sequence (P17597 56-670 S653N): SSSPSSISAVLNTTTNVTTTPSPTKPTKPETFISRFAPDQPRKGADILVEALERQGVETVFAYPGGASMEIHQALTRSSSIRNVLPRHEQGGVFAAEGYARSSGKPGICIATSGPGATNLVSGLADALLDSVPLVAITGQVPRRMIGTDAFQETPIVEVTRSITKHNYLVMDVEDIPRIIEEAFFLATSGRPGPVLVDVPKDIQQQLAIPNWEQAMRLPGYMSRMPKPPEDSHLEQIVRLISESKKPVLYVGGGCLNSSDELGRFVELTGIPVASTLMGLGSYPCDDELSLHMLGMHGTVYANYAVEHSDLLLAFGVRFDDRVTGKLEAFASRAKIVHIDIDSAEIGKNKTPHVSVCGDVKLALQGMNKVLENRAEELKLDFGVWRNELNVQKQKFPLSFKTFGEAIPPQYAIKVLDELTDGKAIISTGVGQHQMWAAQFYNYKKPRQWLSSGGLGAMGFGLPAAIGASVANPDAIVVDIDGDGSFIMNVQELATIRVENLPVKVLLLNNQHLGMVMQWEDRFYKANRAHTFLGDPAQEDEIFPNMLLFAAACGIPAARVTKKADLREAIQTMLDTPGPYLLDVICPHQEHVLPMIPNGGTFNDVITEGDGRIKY
T4 sequence (P17597 other isoform, or with tags, fused parts or gaps DEL574-574): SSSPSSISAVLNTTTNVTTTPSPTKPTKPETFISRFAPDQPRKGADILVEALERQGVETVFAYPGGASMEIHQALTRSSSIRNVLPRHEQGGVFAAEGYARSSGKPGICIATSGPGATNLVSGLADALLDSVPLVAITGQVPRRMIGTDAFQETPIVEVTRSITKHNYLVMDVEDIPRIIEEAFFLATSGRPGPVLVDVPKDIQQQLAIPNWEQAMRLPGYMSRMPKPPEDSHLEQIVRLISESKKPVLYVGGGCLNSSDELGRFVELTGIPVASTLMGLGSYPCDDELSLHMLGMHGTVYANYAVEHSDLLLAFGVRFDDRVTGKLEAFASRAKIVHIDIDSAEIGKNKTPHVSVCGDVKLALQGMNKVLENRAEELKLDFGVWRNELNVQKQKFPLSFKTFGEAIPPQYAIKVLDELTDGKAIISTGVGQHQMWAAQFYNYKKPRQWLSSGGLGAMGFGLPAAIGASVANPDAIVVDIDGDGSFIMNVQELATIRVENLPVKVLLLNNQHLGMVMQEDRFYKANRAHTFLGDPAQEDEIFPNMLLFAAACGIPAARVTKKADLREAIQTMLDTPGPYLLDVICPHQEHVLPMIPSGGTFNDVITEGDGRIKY
T7 sequence (P17597 other isoform, or with tags, fused parts or gaps DEL574-574): as above
T2 sequence (P17597 56-670 W574L): as the sequence (P17597 56-670 S653N) above, with W519L, N598S counted along it
T3 sequence (P17597 56-670 W574L): as the sequence (P17597 56-670 S653N) above, with W519L, N598S counted along it
T5 sequence (P17597 other isoform, or with tags, fused parts or gaps DEL653-653): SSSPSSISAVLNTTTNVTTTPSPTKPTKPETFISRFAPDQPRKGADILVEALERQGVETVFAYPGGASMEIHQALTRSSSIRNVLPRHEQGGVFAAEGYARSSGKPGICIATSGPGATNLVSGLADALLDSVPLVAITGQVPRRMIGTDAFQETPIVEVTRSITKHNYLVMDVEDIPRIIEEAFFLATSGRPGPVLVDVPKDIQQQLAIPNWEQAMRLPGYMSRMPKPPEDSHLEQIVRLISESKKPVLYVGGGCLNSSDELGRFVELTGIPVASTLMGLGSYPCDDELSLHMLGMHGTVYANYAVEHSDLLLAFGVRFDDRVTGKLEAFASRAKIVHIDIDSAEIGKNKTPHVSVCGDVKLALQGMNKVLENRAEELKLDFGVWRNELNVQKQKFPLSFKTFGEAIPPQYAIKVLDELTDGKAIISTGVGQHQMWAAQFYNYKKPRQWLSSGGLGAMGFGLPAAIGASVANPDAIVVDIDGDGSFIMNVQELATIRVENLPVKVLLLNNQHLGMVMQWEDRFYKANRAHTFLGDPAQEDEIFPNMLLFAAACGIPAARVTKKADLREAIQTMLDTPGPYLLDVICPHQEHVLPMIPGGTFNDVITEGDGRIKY

With CCc1cnc(C2=NC(C)(C(C)C)C(=O)N2)c(C(=O)O)c1 (stereo not drawn) [Pursuit®] the “D (Damaged), number of seedlings per dish” value (shortened to “D (Damaged) … per dish”) [1] was 6 and 11, the “R (Resistant), number of seedlings per dish” value (from here on “R (Resistant) … per dish”) [1] was 6 and the “D (Damaged) … per dish” value [2, 14] was 0. The “R (Resistant) … per dish” value [2, 14] was 0, the “S (Susceptible), number of seedlings per dish” value (shortened to “S (Susceptible) … per dish”) [2, 14] was 20 and the “herbicide tolerance of seedlings” value ([2]; control plants, lowest concentration, 1.25 µM in medium) was “exhibited herbicide sensitivity”. The “sensitivity of AHAS enzyme to herbicide” value [3] was “sensitive”, the “AHAS activity in the presence of herbicide” value [4] was “exhibit AHAS activity” and the “D (Damaged) … per dish” value [5] was 9. For the same compound, the “R (Resistant) … per dish” value [5] was 0, the “S (Susceptible) … per dish” value [5] was 11 and the “sensitivity of AHAS enzyme to herbicide” value [6] was “insensitive”. The “sensitivity of AHAS enzyme to herbicide” value [7] was “insensitive”, the plant growth ([8]; 10 g/ha post-emergence, compared to 10-1) was “slightly inhibited” and the “Tobacco Mean FW: (5 reps each)” value ([8]; 10 g/ha postemergence) was 8.1 g. For the same compound, the “Tobacco Mean FW: (5 reps each)” value ([8]; 20 g/ha postemergence) was 2.0 g, the “Tobacco Mean FW: (5 reps each)” value ([8]; 40 g/ha postemergence) was 0.8 g and the “Tobacco Mean FW: (5 reps each)” value ([8]; 80 g/ha postemergence) was 0.6 g. The “Tobacco Mean FW: (5 reps each)” value ([8]; 160 g/ha postemergence) was 0.2 g, the “herbicide tolerance, applied postemergence” value ([8]; any of the rates tested (10 to 160 g/ha)) was “does not display herbicide tolerance” and the plant growth ([8]; starting at 20 g/ha post-emergence) was “almost completely inhibited”. For the same compound, the “sensitivity of AHAS enzyme to herbicide” value [9] was “highly resistant to inhibition”, the “sensitivity of AHAS enzyme to herbicide” value [10] was “insensitive to inhibition” and the “D (Damaged) … per dish” value [11] was 9 and 8. The “R (Resistant) … per dish” value [11] was 0, the “S (Susceptible) … per dish” value [11] was 10 and 8 and the plant growth ([12]; 80 g/ha post-emergence) was “slightly inhibited”. The plant growth ([12]; 160 g/ha post-emergence) was “clearly inhibited”, the “Tobacco Mean FW: (5 reps each)” value ([12]; 10 g/ha postemergence) was 36.4 g and the “Tobacco Mean FW: (5 reps each)” value ([12]; 20 g/ha postemergence) was 28.8 g. For the same compound, the “Tobacco Mean FW: (5 reps each)” value ([12]; 40 g/ha postemergence) was 20.9 g, the “Tobacco Mean FW: (5 reps each)” value ([12]; 80 g/ha postemergence) was 26.5 g and the “Tobacco Mean FW: (5 reps each)” value ([12]; 160 g/ha postemergence) was 21.4 g. The “tolerance to post-emergence applications, relative to the concentration lethal to control tobacco plants” value ([12]; progeny from 10-1) was 4-8 x, the “herbicide tolerance, applied postemergence” value ([12]; rates 10 to 160 g/ha) was “high degree of tolerance” and the “AHAS activity on addition of herbicide” value [13] was “exhibits insensitivity”.
